Key:
potassium arsenate = compound: O=[As]([O-])(O)O.[K+] [potassium arsenate]; assay: thermal stability z-score vs DMSO; higher = more thermally stabilized by treatment; details: HeLa; arsenate concentration 1 mM
Method: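 Cellular thermal proteome profiling in HeLa cells treated with 1 mM arsenate for 1 h (DMSO pretreatment), heated to ten temperatures (37-66.3 °C). Soluble protein was quantified by TMT mass spectrometry relative to DMSO controls; the thermal stability score was transformed to a z-score; mean of n = 3 experiments.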

lipoamide = compound: NC(=O)CCCCC1CCSS1 [lipoamide]; assay: as above; details: HeLa, lipoamide concentration 100 µM
Method: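 Cellular thermal proteome profiling in HeLa cells. Cells were treated with 100 µM lipoamide for 1 h, with or without 1 mM arsenate for a further 1 h, then heated to ten temperatures (37-66.3 °C), and soluble protein was quantified by TMT mass spectrometry relative to 0.1% DMSO controls. The thermal stability score (sum of log2 fold changes minus the abundance score) was transformed to a z-score; mean of n = 3 experiments.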

[1] = arsenate co-treatment: 1 mM arsenate 1 h
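Further: each temperature applied for 3 min, abundance score taken as mean log2 fold change at the two lowest temperatures, z-score obtained by mean subtraction and division by SD.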

Sequence of UniProt P35790 (P35790 whole entry, looked up): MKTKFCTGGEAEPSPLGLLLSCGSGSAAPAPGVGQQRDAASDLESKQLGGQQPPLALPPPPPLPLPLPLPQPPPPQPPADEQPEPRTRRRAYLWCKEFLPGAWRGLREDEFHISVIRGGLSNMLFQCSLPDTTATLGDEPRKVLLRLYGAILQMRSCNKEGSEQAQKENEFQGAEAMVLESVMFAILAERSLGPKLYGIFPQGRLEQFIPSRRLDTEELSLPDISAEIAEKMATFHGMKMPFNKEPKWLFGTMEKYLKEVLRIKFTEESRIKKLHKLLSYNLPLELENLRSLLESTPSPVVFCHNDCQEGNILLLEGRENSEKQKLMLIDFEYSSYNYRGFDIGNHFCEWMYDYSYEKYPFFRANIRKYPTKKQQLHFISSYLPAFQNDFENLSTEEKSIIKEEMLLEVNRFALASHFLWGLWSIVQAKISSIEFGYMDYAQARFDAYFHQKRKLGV
Sequence of UniProt Q7LBR1 (Q7LBR1 whole entry): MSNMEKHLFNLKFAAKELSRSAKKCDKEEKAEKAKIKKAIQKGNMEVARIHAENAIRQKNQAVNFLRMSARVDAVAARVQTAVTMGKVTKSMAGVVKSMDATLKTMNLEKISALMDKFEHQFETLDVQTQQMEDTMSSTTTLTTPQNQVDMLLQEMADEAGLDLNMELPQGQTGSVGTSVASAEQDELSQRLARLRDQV
Sequence of UniProt Q9UHD1 (Q9UHD1 whole entry): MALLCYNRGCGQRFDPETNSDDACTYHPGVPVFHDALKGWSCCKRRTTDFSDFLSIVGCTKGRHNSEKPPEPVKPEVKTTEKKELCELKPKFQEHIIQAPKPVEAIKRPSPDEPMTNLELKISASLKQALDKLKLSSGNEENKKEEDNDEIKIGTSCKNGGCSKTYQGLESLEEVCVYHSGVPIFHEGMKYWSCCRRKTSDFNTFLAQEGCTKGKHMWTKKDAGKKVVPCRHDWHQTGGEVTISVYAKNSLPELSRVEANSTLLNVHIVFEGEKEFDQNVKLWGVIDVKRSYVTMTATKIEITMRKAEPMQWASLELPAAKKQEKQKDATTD
Sequence of UniProt Q8WVB6 (Q8WVB6 whole entry): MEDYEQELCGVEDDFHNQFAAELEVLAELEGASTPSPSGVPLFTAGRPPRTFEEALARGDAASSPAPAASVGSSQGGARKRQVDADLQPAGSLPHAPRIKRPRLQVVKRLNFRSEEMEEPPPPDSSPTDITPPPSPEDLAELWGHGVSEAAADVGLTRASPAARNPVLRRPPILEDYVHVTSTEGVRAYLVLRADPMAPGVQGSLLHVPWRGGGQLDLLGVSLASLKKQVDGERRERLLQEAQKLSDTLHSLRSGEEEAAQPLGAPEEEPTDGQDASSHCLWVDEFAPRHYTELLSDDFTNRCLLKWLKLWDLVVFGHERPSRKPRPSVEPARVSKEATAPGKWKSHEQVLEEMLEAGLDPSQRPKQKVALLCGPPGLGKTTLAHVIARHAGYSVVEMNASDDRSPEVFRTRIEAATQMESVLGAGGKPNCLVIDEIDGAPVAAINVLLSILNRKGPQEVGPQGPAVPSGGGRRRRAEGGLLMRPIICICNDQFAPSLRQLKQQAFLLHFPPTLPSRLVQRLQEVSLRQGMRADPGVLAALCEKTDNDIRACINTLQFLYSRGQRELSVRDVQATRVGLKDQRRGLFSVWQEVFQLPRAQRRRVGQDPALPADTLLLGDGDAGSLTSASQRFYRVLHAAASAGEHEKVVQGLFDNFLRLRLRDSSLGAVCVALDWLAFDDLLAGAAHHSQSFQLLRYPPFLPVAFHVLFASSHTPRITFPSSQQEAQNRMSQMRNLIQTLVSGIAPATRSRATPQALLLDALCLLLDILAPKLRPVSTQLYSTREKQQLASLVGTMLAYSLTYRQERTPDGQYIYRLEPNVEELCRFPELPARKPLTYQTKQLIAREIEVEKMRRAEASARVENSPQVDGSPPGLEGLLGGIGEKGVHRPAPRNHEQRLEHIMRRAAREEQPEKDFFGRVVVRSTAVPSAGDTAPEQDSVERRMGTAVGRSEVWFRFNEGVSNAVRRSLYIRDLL
Sequence of UniProt Q99653 (Q99653 whole entry): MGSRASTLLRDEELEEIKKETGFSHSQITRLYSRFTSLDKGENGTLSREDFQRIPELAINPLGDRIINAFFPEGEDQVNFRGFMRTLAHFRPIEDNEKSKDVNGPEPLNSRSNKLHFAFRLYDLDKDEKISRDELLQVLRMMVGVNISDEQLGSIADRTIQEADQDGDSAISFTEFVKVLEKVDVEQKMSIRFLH
Sequence of UniProt Q3L8U1 (Q3L8U1 whole entry): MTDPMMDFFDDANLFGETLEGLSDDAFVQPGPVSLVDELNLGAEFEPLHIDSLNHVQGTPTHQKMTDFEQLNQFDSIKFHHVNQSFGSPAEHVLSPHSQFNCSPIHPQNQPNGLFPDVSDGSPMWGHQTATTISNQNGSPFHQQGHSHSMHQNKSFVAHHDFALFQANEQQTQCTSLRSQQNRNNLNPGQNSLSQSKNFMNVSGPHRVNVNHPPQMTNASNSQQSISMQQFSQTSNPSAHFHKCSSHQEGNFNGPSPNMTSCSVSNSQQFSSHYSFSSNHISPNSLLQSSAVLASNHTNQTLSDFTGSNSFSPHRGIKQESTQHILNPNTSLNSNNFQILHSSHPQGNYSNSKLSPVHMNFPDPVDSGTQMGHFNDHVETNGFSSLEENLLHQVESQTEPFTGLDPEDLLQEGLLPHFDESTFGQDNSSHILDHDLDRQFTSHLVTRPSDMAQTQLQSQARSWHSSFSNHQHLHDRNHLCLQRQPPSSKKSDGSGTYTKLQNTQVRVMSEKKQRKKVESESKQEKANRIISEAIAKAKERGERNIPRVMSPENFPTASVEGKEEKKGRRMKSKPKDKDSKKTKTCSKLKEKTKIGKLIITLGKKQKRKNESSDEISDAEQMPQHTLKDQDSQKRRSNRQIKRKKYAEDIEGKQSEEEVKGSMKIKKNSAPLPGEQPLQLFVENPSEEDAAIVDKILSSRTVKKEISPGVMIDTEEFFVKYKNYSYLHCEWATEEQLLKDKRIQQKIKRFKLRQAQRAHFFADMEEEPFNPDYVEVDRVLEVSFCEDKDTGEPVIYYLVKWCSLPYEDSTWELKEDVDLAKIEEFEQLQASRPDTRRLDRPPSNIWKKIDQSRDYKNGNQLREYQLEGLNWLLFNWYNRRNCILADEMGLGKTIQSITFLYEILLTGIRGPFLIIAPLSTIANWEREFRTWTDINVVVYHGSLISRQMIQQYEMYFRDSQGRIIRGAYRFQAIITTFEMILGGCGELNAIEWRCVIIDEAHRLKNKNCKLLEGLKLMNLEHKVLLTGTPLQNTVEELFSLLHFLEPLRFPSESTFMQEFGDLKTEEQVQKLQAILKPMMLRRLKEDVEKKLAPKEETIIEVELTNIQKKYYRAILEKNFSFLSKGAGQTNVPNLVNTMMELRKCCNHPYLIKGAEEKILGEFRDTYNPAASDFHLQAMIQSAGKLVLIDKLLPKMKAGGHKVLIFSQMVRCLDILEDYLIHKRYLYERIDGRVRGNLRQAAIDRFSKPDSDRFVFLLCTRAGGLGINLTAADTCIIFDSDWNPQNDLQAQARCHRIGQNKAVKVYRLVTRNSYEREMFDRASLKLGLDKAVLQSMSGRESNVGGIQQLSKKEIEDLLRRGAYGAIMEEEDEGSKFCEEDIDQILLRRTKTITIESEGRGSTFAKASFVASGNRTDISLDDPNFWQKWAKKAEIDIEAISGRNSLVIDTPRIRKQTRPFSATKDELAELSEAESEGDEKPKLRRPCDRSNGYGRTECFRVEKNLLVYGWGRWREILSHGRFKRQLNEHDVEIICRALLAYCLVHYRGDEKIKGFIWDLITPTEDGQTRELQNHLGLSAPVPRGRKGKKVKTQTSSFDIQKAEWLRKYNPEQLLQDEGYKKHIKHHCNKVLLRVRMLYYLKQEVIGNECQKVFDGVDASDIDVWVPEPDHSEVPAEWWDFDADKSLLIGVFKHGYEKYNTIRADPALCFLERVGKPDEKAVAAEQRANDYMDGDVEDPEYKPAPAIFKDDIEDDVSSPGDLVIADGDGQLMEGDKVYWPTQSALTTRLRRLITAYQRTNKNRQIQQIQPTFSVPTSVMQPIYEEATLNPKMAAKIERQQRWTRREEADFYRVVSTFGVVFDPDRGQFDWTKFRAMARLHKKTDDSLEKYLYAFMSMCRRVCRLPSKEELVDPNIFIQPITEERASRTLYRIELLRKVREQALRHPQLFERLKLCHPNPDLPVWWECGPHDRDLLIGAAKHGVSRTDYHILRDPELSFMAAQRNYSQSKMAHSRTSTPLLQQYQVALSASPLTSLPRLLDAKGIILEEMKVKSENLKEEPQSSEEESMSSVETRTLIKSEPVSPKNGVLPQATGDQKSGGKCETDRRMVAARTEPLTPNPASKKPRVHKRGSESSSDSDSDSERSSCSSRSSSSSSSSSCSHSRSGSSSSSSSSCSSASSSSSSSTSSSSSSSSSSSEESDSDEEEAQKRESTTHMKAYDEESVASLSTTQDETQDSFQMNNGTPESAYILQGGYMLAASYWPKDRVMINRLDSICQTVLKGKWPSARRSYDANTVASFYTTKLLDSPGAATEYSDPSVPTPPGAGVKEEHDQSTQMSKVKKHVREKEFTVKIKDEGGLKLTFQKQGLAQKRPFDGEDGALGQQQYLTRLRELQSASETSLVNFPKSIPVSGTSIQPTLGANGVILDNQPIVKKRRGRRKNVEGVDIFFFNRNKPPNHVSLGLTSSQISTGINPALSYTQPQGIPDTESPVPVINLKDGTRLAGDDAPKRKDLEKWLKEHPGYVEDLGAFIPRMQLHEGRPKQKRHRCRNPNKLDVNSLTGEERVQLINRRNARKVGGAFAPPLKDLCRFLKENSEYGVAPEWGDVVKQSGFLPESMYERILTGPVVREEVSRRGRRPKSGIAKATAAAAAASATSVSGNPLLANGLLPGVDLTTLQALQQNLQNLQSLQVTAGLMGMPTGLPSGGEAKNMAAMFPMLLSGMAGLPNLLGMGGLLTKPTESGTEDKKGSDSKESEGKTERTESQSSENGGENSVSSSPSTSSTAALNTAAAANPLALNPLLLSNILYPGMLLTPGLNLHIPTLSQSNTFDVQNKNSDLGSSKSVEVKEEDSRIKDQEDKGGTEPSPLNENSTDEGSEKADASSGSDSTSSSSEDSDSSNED

Target	thermal stability z-score (potassium arsenate)	thermal stability z-score (lipoamide; [1])	thermal stability z-score (lipoamide; arsenate co-treatment: none)
CHD9 (UniProt Q3L8U1)	0.384	-0.0359	-0.0662
CHEK1 (UniProt O14757)	-0.526	0.0611	-0.137
CHEK2 (UniProt O96017)	-0.161	-0.0379	-0.222
CHERP (UniProt Q8IWX8)	-0.107	0.00336	0.0908
CHID1 (UniProt Q9BWS9)	1.18	-3.11	-1.7
CHKA (UniProt P35790)	-1.4	0.498	0.357
CHM (UniProt P24386)	-0.22	0.191	0.152
CHML (UniProt P26374)	-0.161	0.57	0.276
CHMP1A (UniProt Q9HD42)	0.38	0.125	0.254
CHMP1B (UniProt Q7LBR1)	0.0259	-0.234	0.171
CHMP2A (UniProt O43633)	0.392	-0.041	0.185
CHMP2B (UniProt Q9UQN3)	0.573	0.562	0.348
CHMP3 (UniProt Q9Y3E7)	0.291	0.271	0.481
CHMP4B (UniProt Q9H444)	-0.176	0.0919	0.359
CHMP4C (UniProt Q96CF2)	-0.789	-0.0236	-0.694
CHMP5 (UniProt Q9NZZ3)	-0.246	0.869	0.597
CHMP6 (UniProt Q96FZ7)	0.217	0.476	0.273
CHMP7 (UniProt Q8WUX9)	-0.0641	-0.517	-0.865
CHORDC1 (UniProt Q9UHD1)	-0.23	0.149	0.043
CHP1 (UniProt Q99653)	1.28	0.377	0.436
CHPF2 (UniProt Q9P2E5)	-0.154	-0.824	-0.516
CHPF (UniProt Q8IZ52)	-0.257	-1.5	-0.387
CHRAC1 (UniProt Q9NRG0)	-0.28	-0.123	0.285
CHST14 (UniProt Q8NCH0)	-0.359	-0.943	-0.167
CHSY1 (UniProt Q86X52)	-0.171	-0.212	-0.333
CHTF8 (UniProt P0CG13)	0.975	1.3	0.577
CHTF18 (UniProt Q8WVB6)	-0.0702	-0.117	-0.0426
CHTOP (UniProt Q9Y3Y2)	0.73	1.86	0.726

Target	thermal stability z-score (potassium arsenate)	thermal stability z-score (lipoamide; [1])	thermal stability z-score (lipoamide; arsenate co-treatment: none)
CHUK (UniProt O15111)	0.578	0.887	0.727
CHURC1 (UniProt Q8WUH1)	-0.122	-0.539	-0.988
CIAO1 (UniProt O76071)	-1.32	0.164	0.0342
CIAPIN1 (UniProt Q6FI81)	0.186	0.671	0.397
CIC (UniProt Q96RK0)	-0.261	0.0454	-0.131
CINP (UniProt Q9BW66)	0.256	-0.0967	-0.169
CIRBP (UniProt Q14011)	-0.194	0.435	-0.192
CISD1 (UniProt Q9NZ45)	-0.578	0.257	0.707
CISD2 (UniProt Q8N5K1)	-0.581	0.556	0.316
CISD3 (UniProt P0C7P0)	0.0591	1.09	1.49
CIT (UniProt O14578)	-0.76	0.342	-0.767
CIZ1 (UniProt Q9ULV3)	-0.0848	0.0439	-0.505
CKAP2 (UniProt Q8WWK9)	-0.222	-0.00358	0.0789
CKAP4 (UniProt Q07065)	-0.938	-3.96	-2.84
CKAP5 (UniProt Q14008)	0.286	-0.095	-0.0102
CKB (UniProt P12277)	-1.02	-0.249	-0.245
CKMT1A (UniProt P12532)	0.795	0.957	0.965
CKS1B (UniProt P61024)	0.573	0.525	0.603
CKS2 (UniProt P33552)	0.179	0.199	0.17
CLASP1 (UniProt Q7Z460)	-0.0658	-0.602	-0.311
CLASP2 (UniProt O75122)	0.0564	-0.0563	-0.198
CLASRP (UniProt Q8N2M8)	0.14	-0.693	-0.133
CLCC1 (UniProt Q96S66)	0.408	-5.63	-5.9
CLCN3 (UniProt P51790)	-0.374	-0.368	-0.225
CLCN7 (UniProt P51798)	0.0852	-0.792	-0.489
CLEC16A (UniProt Q2KHT3)	-0.437	0.0777	-0.0307
CLIC1 (UniProt O00299)	-0.144	0.85	0.348

From the supplement of paper PMC12463676, “Small-molecule dissolution of stress granules by redox modulation benefits ALS models” (Nature Chemical Biology, 2025)
